Tests used:
[1] = tested on: C57Bl/6 mice, LPS-mediated lung injury; assay: Acute lung injury after intratracheal LPS (5 μg/g), lungs evaluated at 24 h; assay type: in vivo, mouse; details: for lung injury, peptide administered along with LPS (0 time): evaluated at 24 hours after LPS; for lung injury, peptide administered at 12-16 hours after LPS: sacrifice @ 24 hours
Method: The IT model of acute lung injury (ALI) as shown in Table 9 was used to test the effects of PIP-2. […] IV administration of PIP-2 was used to avoid a second ‘assault’ on the trachea. Mice were sacrificed at 24 hours and lungs were evaluated for injury as described in Table 9. Protection (%) against lung injury was calculated as [1−(injury with PIP-2−control)/(LPS alone−control)]. Results are mean±SE for n=4. *P<0.01 vs control. ^†P<0.01 vs no PIP, 24 hours.
To study the effect of PIP-2 administration on lung injury, mice were treated with LPS (5 μg/g body weight) given IT. […] PIP-2 (2 μg/g body weight in liposomes) was administered at 0, 12, or 16 h after LPS. We have shown previously that this dose of PIP-2 can inhibit lung aiPLA2 activity by ˜90% for at least 24 h. PIP-2 was given IT at time zero and IV at 12 or 16 h in order to avoid excessive damage to the trachea. Animals were sacrificed and lungs were examined at 24 h after LPS. All indices of lung injury, reflecting lung inflammation, alveolar-capillary barrier dysfunction, lung fluid accumulation, and tissue oxidative stress, were elevated in LPS-treated mice as compared to control (p<0.05). […] Since lung injury was present in lungs at 12 and 16 h after LPS, the normal values at 24 h in lungs from LPS treated mice given PIP-2 at 12 or 16 h can only mean that lungs were able to recover fully from their injury during the 8 to 12 h interval between the administration of PIP-2 and examination of the lungs.

NOX2 = assay: ROS production (Amplex red) of isolated perfused mouse lung stimulated with angiotensin II; assay type: in vivo; details: for ROS production by AngII-activated NOX2 in the isolated mouse lung: ex_vivo
Method: FIGS. 5A and 5B: PIP-2, incorporated within liposomes, was instilled intratracheally prior to lung isolation. FIG. 5A: Isolated lungs were perfused in a recirculating system with artificial medium. NOX2 activity was stimulated by addition of angiotensin II (Ang II). Amplex red along with horseradish peroxidase were added to the perfusate for detection of ROS production. Aliquots of perfusate were analyzed at intervals by spectrophotometry to determine oxidation of amplex red, indicating ROS production. Results are mean±SE for N=3-4. FIG. 5B: Mice were sacrificed at 6, 12, or 24 h after LPS administration ([…]) and lungs were perfused in situ for 15 min with saline solution containing a fluorophore (difluorofluorescein diacetate, DFFDA). Lungs then were homogenized and fluorescence of the lung homogenate was determined as an index of ROS production. Results for FIG. 5A & FIG. 5B are mean±SE for N=4. *P<0.05 vs corresponding LPS and LPS+PIP-2; § P<0.05 vs 12 h and 24 h LPS; ΔP<0.05 vs corresponding LPS.
FIG. 8: PLA2 inhibitory peptide (PIP-2) inhibits ROS production stimulated by angiotensin II (Ang II) in isolated perfused mouse lung. PIP-2 (2 μg/g body weight) was administered to intact wild type (WT) mice by the IV route. […] After 30 mins, lungs were isolated from anesthesized mice and perfused in a recirculating system with added Ang II ([…]) as a Nox2 activator and Amplex red plus horseradish peroxidase to detect perfusate ROS. WT basal lungs were not stimulated with Ang II. After a 15 min equilibration period (called zero time), aliquots were taken at 15 min intervals for analysis of fluorescence. Each plotted point represents the mean±SE for n=3. The lines were drawn by the least mean squares method. The mean rates of ROS […] calculated from the slope of each line are indicated in parentheses. *P<0.05 vs the other 3 slopes.
FIG. 10: Effect of liposome composition on delivery of PIP-2 to lungs after IV administration. […]
The effect of the PIPs on ROS production in control (untreated) lungs was determined in vitro with isolated perfused lungs. […] The basal rate of ROS production was evaluated with WT lungs that were perfused in the absence of AngII. […] Aliquots of perfusate were taken at 15 min intervals and analyzed by fluorescence for resorufin (λexcitation 568 nm, λemission 581 nm), the product of Amplex red oxidation. The rate of Amplex red oxidation was calculated and expressed as arbitrary fluorescence units (AFU) with normalization to mouse body wt. There was a low rate of Amplex red oxidation in the absence of HRP in the perfusate (˜7% of the AngII-stimulated fluorescence), indicating a non-ROS-mediated oxidation of the fluorophore; this value was subtracted to obtain the reported values.

recombinant hPrdx6 = target: T1, recombinant hPrdx6 (Homo sapiens, UniProt P30041); assay: aiPLA2 activity of recombinant human Prdx6 in presence of peptide; assay type: biochemical; details: for aiPLA2 activity of human recombinant protein: Table 2, hPrdx6 only 92.0
T1 sequence (P30041 1-224): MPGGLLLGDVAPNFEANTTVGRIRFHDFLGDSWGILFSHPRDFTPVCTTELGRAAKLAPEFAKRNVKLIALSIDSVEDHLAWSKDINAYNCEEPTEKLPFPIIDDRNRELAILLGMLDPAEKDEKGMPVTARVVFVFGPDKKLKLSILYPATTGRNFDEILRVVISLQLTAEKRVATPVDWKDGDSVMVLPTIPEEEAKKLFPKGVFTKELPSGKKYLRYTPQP

[2] = Control: PIP in liposomes IT, no LPS
[3] = Control: PIP in liposomes, no LPS
[4] = LPS 5 μg/g IT, PIP-4 2 μg/g IV @12 hr, sacrifice at 24 hrs
[5] = LPS 5 μg/g IT, PIP-4 2 μg/g IV @16 h, sacrifice at 24 hrs
[6] = LPS 5 μg/g IT, PIP-2 2 μg/g IV @12 hr, sacrifice at 24 hrs
[7] = LPS 5 μg/g IT, PIP-2 2 μg/g IV @16 h, sacrifice at 24 hrs

## LYEIKHQIL (Inhibitory peptide.) [PIP-4]
[1]; [2]
  8-Isoprostanes: 34 ± 1 pmol/mg prot
  Protein carbonyls: 5.8 ± 0.2 nmol/mg prot
  TBARS: 76 ± 2 pmol/mg prot.
[1]; [3]
  # of cells: 0.96 ± 0.03 ×10^4/g wt
  Wet/Dry lung weight ratio: 5.59 ± 0.02
  protein: 78 ± 2 μg protein/g wt
[1]; LPS 5 μg/g IT, PIP-4 2 μg/g IT @0 hrs, sacrifice at 24 hrs, LPS alone 7.40
  Wet/Dry lung weight ratio: 6.1 ± 0.01
[1]; LPS 5 μg/g IT, PIP-4 2 μg/g IT @0 hrs, sacrifice at 24 hrs, LPS alone 8.5
  # of cells: 0.95 ± 0.02 ×10^4/g wt
[1]; LPS 5 μg/g IT, PIP-4 2 μg/g IT @0 hrs, sacrifice at 24 hrs, LPS alone 16.9
  Protein carbonyls: 5.9 ± 0.3 nmol/mg prot
[1]; LPS 5 μg/g IT, PIP-4 2 μg/g IT @0 hrs, sacrifice at 24 hrs, LPS alone printed 1.02 ± 3
  8-Isoprostanes: 32 ± 2 pmol/mg prot
[1]; [4]
  # of cells: 1.46 ± 0.25 ×10^4/g wt
  Protein carbonyls: 6.4 ± 0.1 nmol/mg prot
  protein: 85 ± 2 μg protein/g wt
[1]; [5]
  # of cells: 1.44 ± 0.12 ×10^4/g wt
  Protein carbonyls: 6.4 ± 0.1 nmol/mg prot
  TBARS: 85 ± 2 pmol/mg prot.
  Wet/Dry lung weight ratio: 6.12 ± 0.09
  protein: 83 ± 1 μg protein/g wt
[1]
  lung injury, peptide administered along with LPS (0 time): prevents lung injury
  lung injury, peptide administered at 12-16 hours after LPS: prevents further injury
NOX2
  ROS production by AngII-activated NOX2 in the isolated mouse lung: inhibit ROS production
Recombinant hPrdx6
  aiPLA2 activity of human recombinant protein: 32.3 nmol/min/mg prot.

## LHDFRHQIL (Inhibitory peptide.) [PIP-2]
[1]; LPS 5 μg/g IT, PIP-2 2 μg/g IT @0 hrs, sacrifice at 24 hrs, control 0.95, LPS 8.67
  # of cells: 0.92 ± 0.02 ×10^4/g wt
[1]; LPS 5 μg/g IT, PIP-2 2 μg/g IT @0 hrs, sacrifice at 24 hrs, control 5.59, LPS 8.10
  Wet/Dry lung weight ratio: 5.50 ± 0.04
[1]; LPS 5 μg/g IT, PIP-2 2 μg/g IT @0 hrs, sacrifice at 24 hrs, control 5.6, LPS 16.9
  Protein carbonyls: 5.4 ± 0.1 nmol/mg prot
[1]; LPS 5 μg/g IT, PIP-2 2 μg/g IT @0 hrs, sacrifice at 24 hrs, control 34, LPS 101
  8-Isoprostanes: 31 ± 2 pmol/mg prot
[1]; LPS 5 μg/g IT, PIP-2 2 μg/g IT @0 hrs, sacrifice at 24 hrs, control 75, LPS 164
  protein: 71 mg protein/g wt
[1]; LPS 5 μg/g IT, PIP-2 2 μg/g IT @0 hrs, sacrifice at 24 hrs, control 75, LPS 381
  TBARS: 70 ± 2.1 pmol/mg prot.
[1]; [6]
  8-Isoprostanes: 38 ± 1 pmol/mg prot
  # of cells: 1.45 ± 0.03 ×10^4/g wt
  Protein carbonyls: 6.4 ± 0.2 nmol/mg prot
  TBARS: 85 ± 5.2 pmol/mg prot.
  Wet/Dry lung weight ratio: 5.95 ± 0.02
  protein: 84 ± 1.2 mg protein/g wt
[1]; [7]
  8-Isoprostanes: 40 ± 1 pmol/mg prot
  # of cells: 1.43 ± 0.2 ×10^4/g wt
  Protein carbonyls: 6.4 ± 0.3 nmol/mg prot
  TBARS: 89 ± 9.3 pmol/mg prot.
  Wet/Dry lung weight ratio: 6.19 ± 0.06
  protein: 82.0 ± 1.2 mg protein/g wt
[1]; PIP-2 at 12 or 16 hours after LPS, evaluated at 24 hours
  protection against lung injury: 85-95%
[1]
  lung injury, peptide administered along with LPS (0 time): completely prevented lung injury
  lung injury, peptide administered at 12-16 hours after LPS: prevents further injury
[1]; evaluated at 24 hr after IT LPS, PIP-2 at 0, 12 or 16 h after LPS
  protection against lung injury: > 75%
NOX2; PIP-2 2 μg/g in liposomes IV, WT lungs, Ang II 50 μM
  inhibition of ROS production: ~75%
NOX2
  ROS production by AngII-activated NOX2 in the isolated mouse lung: inhibit ROS production
Recombinant hPrdx6
  aiPLA2 activity of human recombinant protein: 29.9 nmol/min/mg prot.
Recombinant hPrdx6; Table 3, hPrdx6 only 99.91
  aiPLA2 activity of human recombinant Prdx6: 26.18 nmol/min/mg prot.

— patent US12070483B2, “Compositions and methods for treatment of acute lung injury” (THE TRUSTEES OF THE UNIVERSITY OF PENNSYLVANIA, priority 2018, dated 2024)
